# Assay results published in patent publication US11446287B2, “Compounds and methods for EP300 or CBP modulation and indications therefor” (Opna Immuno-Oncology SA, priority 2019, dated 2022).
# Target: T1, Recombinant human CBP containing the bromodomain (CBP-BD (1043-1159)) (Homo sapiens, UniProt Q92793)
# T1 construct: Recombinant human CBP bromodomain (CBP-BD (1043-1159)); made in house; host or cells: E. coli BL21-CodonPlus (DE3), modified pET vector
# Experiment: CBP Alphascreen binding assay
# Details: read-out: CREBBP (CBP) IC50
# Protocol: CBP Alphascreen Binding Assay
# Binding of compounds of Formula (I) with CBP was assessed using Alphascreen™ binding assay. The inhibition of the interaction between the CBP bromodomain and its acetylated target protein was measured quantitatively using recombinant CBP, an acetylated Histone 3 peptide and AlphaScreen™ technology. In absence of inhibition of the CBP protein bound to AlphaScreen™ nickel chelate acceptor beads can interact with the acetylated Histone 3 peptide which was immobilized by the AlphaScreen™ Streptavidin coated beads. This interaction brings donor and acceptor beads in proximity. The close proximity allows the singlet oxygen produced by laser excitation of the donor beads to reach the acceptor beads and generate a luminescence signal. CBP inhibitors result in a decrease in the proximity signal through an inhibition of the CBP—acetylated peptide interaction.
# Recombinant human CBP containing the bromodomain (CBP-BD (1043-1159)) was prepared and purified as described in protein expression and purification session. The peptide was human Histone H345-64K56Ac-Biotin (Anaspec CA, USA).
# Protocol for CBP assay: All components are prepared in buffer composed of 50 mM HEPES pH 7.5, 50 mM NaCl, 0.01% BSA, 0.01% Triton X-100, 2 mM DTT. Test compounds and DMSO vehicle are diluted 1:50 in buffer and a 4 μL volume was transferred to an Alphaplate. 5.5 μL of CBP protein and 5.5 μL of peptide are added to wells containing 4 μL of various concentrations of test compounds of Formula (I) or DMSO vehicle in an Alphaplate (PerkinElmer GA, USA) and incubated for 1 hour at room temperature. 5 μL donor and acceptor bead mixture was then added with final concentrations of 7.5 μg/ml. 60 minutes after bead addition, Alpha signal was read on the Envision spectrometer (λEx 680 nm, λEm 520-620 nm). Final concentrations of bromodomain proteins and peptide are as shown below.
# All data were normalized to the mean of 16 high and 16 low control wells on each plate. A four parameter curve fit of the following formula was then applied: Y=A+((B−A)/(1+((C/x)^D))) Where ‘A’ is the minimum, ‘B’ is the maximum, ‘C’ is the IC50 and ‘D’ is the Hill slope. Protein Expression and Purification
# Recombinant human CBP bromodomain (CBP-BD (1043-1159)) was expressed in E. coli cells (in a modified pET vector) with an N-terminal six-His tag and purified using a combination of both IMAC (Ni-affinity) and size exclusion chromatography steps.
# Recombinant CBP protein was expressed using the E. coli strain BL21-CodonPlus (DE3) (Agilent Technologies CA, USA). Cells were grown in Terrific Broth (TB) media to an OD600 of 0.92 at 37° C. at which temperature was reduced to 20° C., protein was induced with 1.0 mM isopropyl-β-D-thiogalactopyranoside (“IPTG”) for 20 hours and harvested by centrifugation at 8500×g for 20 minutes. Cells were re-suspended in 0.1M K2PO4 pH 8.0, 250 mM NaCl, 10% Glycerol, 0.75% NP-40, 25 mM Imidazole, with 0.2 mg/ml Lysozyme, 0.2 mM phenylmethanesulfonyl fluoride (“PMSF”), […] (“BME”), 25 μg/ml DNase I, incubated on ice for 30 minutes and lysed with a cell disruptor (MicroFluidics MA, USA). The lysate was clarified by centrifugation at 20,000×g for 1 hour. The protein was captured with Ni-NTA resin (Life Technologies, USA). Contaminating proteins were washed off with 40 mM HEPES pH 7.5, 500 mM NaCl, 5% Glycerol, 5 mM Imidazole, and 5 mM BME. Following 3× wash steps, protein was eluted using 400 mM Imidazole in 40 mM HEPES pH 7.5, 400 mM NaCl, and 5 mM BME. The protein was further purified using a size exclusion column (26/600 Superdex 200, GE Biosciences NJ, USA) in 40 mM HEPES pH 7.5, 250 mM NaCl, 5 mM BME. The protein was aliquoted and flash-frozen in liquid Nitrogen.
# T1 sequence (Q92793 1081-1197): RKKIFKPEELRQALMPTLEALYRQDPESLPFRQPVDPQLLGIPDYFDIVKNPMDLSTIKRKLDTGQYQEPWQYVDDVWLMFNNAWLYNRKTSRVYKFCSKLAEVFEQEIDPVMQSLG
row,Compound,IC50 [µM]
1,"Cc1noc(C)c1-c1cnc2c(c1)c(-c1ccc(C(=O)O)cc1OCC(F)(F)F)cn2[C@@H](C)c1ccccn1 [P-0115, (S)-4-(5-(3,5-dimethylisoxazol-4-yl)-1-(1-(pyridin-2-yl)ethyl)-1H-pyrrolo[2,3-b]pyridin-3-yl)-3-(2,2,2-trifluoroethoxy)benzoic acid]",0.0001 to 1
2,"Cc1noc(C)c1-c1cnc2c(c1)c(-c1ccc(C(=O)O)cc1C(F)(F)F)cn2[C@@H](C)c1ccccn1 [P-0116, (S)-4-(5-(3,5-dimethylisoxazol-4-yl)-1-(1-(pyridin-2-yl)ethyl)-1H-pyrrolo[2,3-b]pyridin-3-yl)-3-(trifluoromethyl)benzoic acid]",0.0001 to 1
3,"CCCOc1cc(C(=O)O)cc(OCCC)c1-c1cn([C@@H](C)c2ccccn2)c2ncc(-c3c(C)noc3C)cc12 [P-0117, (S)-4-(5-(3,5-dimethylisoxazol-4-yl)-1-(1-(pyridin-2-yl)ethyl)-1H-pyrrolo[2,3-b]pyridin-3-yl)-3,5-dipropoxybenzoic acid]",0.0001 to 1
4,"Cc1noc(C)c1-c1cnc2c(c1)c(-c1c(OC(C)C)cc(C(=O)O)cc1OC(C)C)cn2[C@@H](C)c1ccccn1 [P-0118, (S)-4-(5-(3,5-dimethylisoxazol-4-yl)-1-(1-(pyridin-2-yl)ethyl)-1H-pyrrolo[2,3-b]pyridin-3-yl)-3,5-diisopropoxybenzoic acid]",0.0001 to 1
5,"COc1cc(C(=O)O)cc(OC)c1-c1cn(C(C)c2ccccc2)c2cc(-c3c(C)noc3C)cnc12 (stereo not drawn) [P-0119, 4-(6-(3,5-dimethylisoxazol-4-yl)-1-(1-phenylethyl)-1H-pyrrolo[3,2-b]pyridin-3-yl)-3,5-dimethoxybenzoic acid]",0.0001 to 1
6,"Cc1noc(C)c1-c1cnc2c(-c3ccccc3C(=O)O)cn(C(C)c3ccccc3)c2c1 (stereo not drawn) [P-0120, 2-(6-(3,5-dimethylisoxazol-4-yl)-1-(1-phenylethyl)-1H-pyrrolo[3,2-b]pyridin-3-yl)benzoic acid]",1 to 8
7,"Cc1noc(C)c1-c1cnc2c(C(=O)C3CCC3)cn(-c3c(Cl)cc(C(=O)O)cc3Cl)c2c1 [P-0121, 3,5-dichloro-4-(3-(cyclobutanecarbonyl)-6-(3,5-dimethylisoxazol-4-yl)-1H-pyrrolo[3,2-b]pyridin-1-yl)benzoic acid]",0.0001 to 1
8,"Cc1noc(C)c1-c1cnc2c(c1)c(-c1cccc(C(=O)O)n1)cn2C(C)c1ccccn1 (stereo not drawn) [P-0122, 6-(5-(3,5-dimethylisoxazol-4-yl)-1-(1-(pyridin-2-yl)ethyl)-1H-pyrrolo[2,3-b]pyridin-3-yl)picolinic acid]",1 to 8
9,"Cc1noc(C)c1-c1cnc2c(c1)c(-c1ccc(C(=O)O)cn1)cn2C(C)c1ccccn1 (stereo not drawn) [P-0123, 6-(5-(3,5-dimethylisoxazol-4-yl)-1-(1-(pyridin-2-yl)ethyl)-1H-pyrrolo[2,3-b]pyridin-3-yl)nicotinic acid]",0.0001 to 1
10,"Cc1noc(C)c1-c1cnc2c(c1)c(-c1cc(C(=O)O)ccn1)cn2C(C)c1ccccn1 (stereo not drawn) [P-0124, 2-(5-(3,5-dimethylisoxazol-4-yl)-1-(1-(pyridin-2-yl)ethyl)-1H-pyrrolo[2,3-b]pyridin-3-yl)isonicotinic acid]",0.0001 to 1
11,"Cc1noc(C)c1-c1cnc2c(c1)c(-c1ccc(F)c(C(=O)O)c1F)cn2[C@@H](C)c1ccccn1 [P-0125, (S)-3-(5-(3,5-dimethylisoxazol-4-yl)-1-(1-(pyridin-2-yl)ethyl)-1H-pyrrolo[2,3-b]pyridin-3-yl)-2,6-difluorobenzoic acid]",0.0001 to 1
12,"Cc1noc(C)c1-c1cnc2c(c1)c(-c1ccnc(C(=O)O)n1)cn2C(C)c1ccccn1 (stereo not drawn) [P-0126, 4-(5-(3,5-dimethylisoxazol-4-yl)-1-(1-(pyridin-2-yl)ethyl)-1H-pyrrolo[2,3-b]pyridin-3-yl)pyrimidine-2-carboxylic acid]",0.0001 to 1
13,"CCCOc1cc(C(=O)O)cc(OCCC)c1-n1cc(CC2CCC2)c2ncc(-c3c(C)noc3C)cc21 [P-0127, 4-(3-(cyclobutylmethyl)-6-(3,5-dimethylisoxazol-4-yl)-1H-pyrrolo[3,2-b]pyridin-1-yl)-3,5-dipropoxybenzoic acid]",0.0001 to 1
14,"Cc1noc(C)c1-c1cnc2c(Cc3cccc(Cl)c3)cn(-c3c(Cl)cc(C(=O)O)cc3Cl)c2c1 [P-0128, 3,5-dichloro-4-(3-(3-chlorobenzyl)-6-(3,5-dimethylisoxazol-4-yl)-1H-pyrrolo[3,2-b]pyridin-1-yl)benzoic acid]",0.0001 to 1
15,"Cc1noc(C)c1-c1cnc2c(C(=O)c3cccc(OC(F)F)c3)cn(-c3c(Cl)cc(C(=O)O)cc3Cl)c2c1 [P-0129, 3,5-dichloro-4-(3-(3-(difluoromethoxy)benzoyl)-6-(3,5-dimethylisoxazol-4-yl)-1H-pyrrolo[3,2-b]pyridin-1-yl)benzoic acid]",0.0001 to 1
16,"Cc1noc(C)c1-c1cnc2c(CC3CCC3)cn(-c3ccc([N+](=O)[O-])cc3F)c2c1 [P-0130, 4-(3-(cyclobutylmethyl)-1-(2-fluoro-4-nitrophenyl)-1H-pyrrolo[3,2-b]pyridin-6-yl)-3,5-dimethylisoxazole]",8 to 1000
17,"Cc1noc(C)c1-c1cnc2c(Cc3ccccc3Cl)cn(-c3c(Cl)cc(C(=O)O)cc3Cl)c2c1 [P-0131, 3,5-dichloro-4-(3-(2-chlorobenzyl)-6-(3,5-dimethylisoxazol-4-yl)-1H-pyrrolo[3,2-b]pyridin-1-yl)benzoic acid]",0.0001 to 1
18,"Cc1noc(C)c1-c1cnc2c(Cc3cccc(OCc4ccccc4)c3)cn(-c3c(Cl)cc(C(=O)O)cc3Cl)c2c1 [P-0132, 4-(3-(3-(benzyloxy)benzyl)-6-(3,5-dimethylisoxazol-4-yl)-1H-pyrrolo[3,2-b]pyridin-1-yl)-3,5-dichlorobenzoic acid]",0.0001 to 1
19,"Cc1noc(C)c1-c1cnc2c(C(=O)c3cccc(OCc4ccccc4)c3)cn(-c3c(Cl)cc(C(=O)O)cc3Cl)c2c1 [P-0133, 4-(3-(3-(benzyloxy)benzoyl)-6-(3,5-dimethylisoxazol-4-yl)-1H-pyrrolo[3,2-b]pyridin-1-yl)-3,5-dichlorobenzoic acid]",0.0001 to 1
20,"COc1ccc(-n2cc(CC3CCC3)c3ncc(-c4c(C)noc4C)cc32)cn1 [P-0134, 4-(3-(cyclobutylmethyl)-1-(6-methoxypyridin-3-yl)-1H-pyrrolo[3,2-b]pyridin-6-yl)-3,5-dimethylisoxazole]",1 to 8
21,"COc1cc(C(=O)O)cc(OCc2ccccc2)c1-c1cn([C@@H](C)c2ccccn2)c2ncc(-c3c(C)noc3C)cc12 [P-0135, (S)-3-(benzyloxy)-4-(5-(3,5-dimethylisoxazol-4-yl)-1-(1-(pyridin-2-yl)ethyl)-1H-pyrrolo[2,3-b]pyridin-3-yl)-5-methoxybenzoic acid]",0.0001 to 1
22,"COc1c(C(=O)O)cccc1-c1cn(C(C)c2ccccc2)c2cc(-c3c(C)noc3C)cnc12 (stereo not drawn) [P-0136, 3-(6-(3,5-dimethylisoxazol-4-yl)-1-(1-phenylethyl)-1H-pyrrolo[3,2-b]pyridin-3-yl)-2-methoxybenzoic acid]",0.0001 to 1
23,"Cc1noc(C)c1-c1cnc2c(c1)c(-c1ccc(C(=O)O)cc1OC1COC1)cn2[C@@H](C)c1ccccn1 [P-0137, (S)-4-(5-(3,5-dimethylisoxazol-4-yl)-1-(1-(pyridin-2-yl)ethyl)-1H-pyrrolo[2,3-b]pyridin-3-yl)-3-(oxetan-3-yloxy)benzoic acid]",0.0001 to 1
24,"Cc1noc(C)c1-c1cnc2c(c1)c(-c1ccc(C(=O)O)cc1OCC1CC1)cn2[C@@H](C)c1ccccn1 [P-0138, (S)-3-(cyclopropylmethoxy)-4-(5-(3,5-dimethylisoxazol-4-yl)-1-(1-(pyridin-2-yl)ethyl)-1H-pyrrolo[2,3-b]pyridin-3-yl)benzoic acid]",0.0001 to 1
